Measurements taken from patent US20200131156A1, “ARYLSULFONYLPYROLECARBOXAMIDE DERIVATIVES AS Kv3 POTASSIUM CHANNEL ACTIVATORS” (H. Lundbeck A/S, priority 2018, published 2020).

Target: T1, hKv3.1b (Homo sapiens, UniProt P48547)
T1 construct: expressed in transfected cells
T1 sequence (P48547 1-585 isoform P48547-2): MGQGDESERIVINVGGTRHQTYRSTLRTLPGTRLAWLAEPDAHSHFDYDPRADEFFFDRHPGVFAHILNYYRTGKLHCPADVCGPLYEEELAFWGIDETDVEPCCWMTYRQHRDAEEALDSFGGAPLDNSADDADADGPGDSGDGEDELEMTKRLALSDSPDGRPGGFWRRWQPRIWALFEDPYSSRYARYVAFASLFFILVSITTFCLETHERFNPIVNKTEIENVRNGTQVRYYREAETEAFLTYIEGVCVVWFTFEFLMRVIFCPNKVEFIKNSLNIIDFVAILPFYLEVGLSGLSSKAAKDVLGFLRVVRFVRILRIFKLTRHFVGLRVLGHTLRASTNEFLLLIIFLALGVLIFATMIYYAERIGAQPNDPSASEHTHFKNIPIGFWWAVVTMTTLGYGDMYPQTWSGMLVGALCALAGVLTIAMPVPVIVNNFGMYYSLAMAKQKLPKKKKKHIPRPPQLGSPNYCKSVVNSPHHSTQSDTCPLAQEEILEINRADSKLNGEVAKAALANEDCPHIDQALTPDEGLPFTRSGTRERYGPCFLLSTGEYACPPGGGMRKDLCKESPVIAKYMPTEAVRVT
Assay: Automated patch clamp (QPatch-16x) on HEK-293 cells stably expressing hKv3.1b
Assay type: cell-based
Settings: for ECdelta5 mV: concentration needed to shift the activation threshold 5 mV; for Threshold Shift: maximum absolute hyperpolarizing shift of activation threshold at tested concentrations 0.37-30 μM
Method in brief: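 Whole-cell automated patch clamp, extracellular pH 7.4, 4 mM Na2ATP intracellular; holding −80 mV, 200 ms steps −70 to +10 mV. Five ascending concentrations (0.37–30 μM) per cell, ~3 min each, 0.33% DMSO vehicle. Activation threshold (5% of vehicle peak at 10 mV) shift fitted sigmoidally; ECdelta5 mV read from curve.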

SMILES | ECdelta5 mV | Threshold Shift
Cc1cnc(CNC(=O)c2ccn(S(=O)(=O)c3ccccc3C)c2)o1 [Compound 80, 1-(2-methylbenzene-1-sulfonyl)-N-[(5-methyl-1,3-oxazol-2-yl)methyl]-1H-pyrrole-3-carboxamide] | 2800 nM | 12 mV
Cc1ccc(S(=O)(=O)n2ccc(C(=O)NCc3cnc(C)o3)c2)cc1 [Compound 38, N-[(2-methyloxazol-5-yl)methyl]-1-(p-tolylsulfonyl)pyrrole-3-carboxamide] | 4600 nM | 13 mV
Cc1noc(CNC(=O)c2ccn(S(=O)(=O)c3ccccc3C)c2)n1 [Compound 75, 1-(2-methylbenzene-1-sulfonyl)-N-[(3-methyl-1,2,4-oxadiazol-5-yl)methyl]-1H-pyrrole-3-carboxamide] | 3200 nM | 14 mV
Cc1cnc(CNC(=O)c2ccn(S(=O)(=O)c3cc(C)c(F)c(C)c3)c2)cn1 [Compound 100, 1-(4-fluoro-3,5-dimethyl-phenyl)sulfonyl-N-[(5-methylpyrazin-2-yl)methyl]pyrrole-3-carboxamide] | 4300 nM | 15 mV
Cc1ccc(S(=O)(=O)n2ccc(C(=O)NCc3nnc(C)s3)c2)cc1 [Compound 115, 1-(4-methylbenzene-1-sulfonyl)-N-[(5-methyl-1,3,4-thiadiazol-2-yl)methyl]-1H-pyrrole-3-carboxamide] | 2800 nM | 17 mV
Cc1ccc(S(=O)(=O)n2ccc(C(=O)NCc3cscn3)c2)cc1 [Compound 49, 1-(4-methylbenzene-1-sulfonyl)-N-[(1,3-thiazol-4-yl)methyl]-1H-pyrrole-3-carboxamide] | 2100 nM | 13 mV
COc1ccc(CNC(=O)c2ccn(S(=O)(=O)c3ccc(C)cc3)c2)nc1 [Compound 18, N-[(5-methoxy-2-pyridyl)methyl]-1-(p-tolylsulfonyl) pyrrole-3-carboxamide] | 3500 nM | 10 mV
Cc1cnc(CNC(=O)c2ccn(S(=O)(=O)c3ccccc3)c2)c(Cl)n1 [Compound 113, 1-(benzenesulfonyl)-N-[(3-chloro-5-methylpyrazin-2-yl)methyl]-1H-pyrrole-3-carboxamide] | 3500 nM | 14 mV
O=C(NCc1cnccn1)c1ccn(S(=O)(=O)c2ccc(Cl)cc2)c1 [Compound 81, 1-(4-chlorobenzene-1-sulfonyl)-N-[(pyrazin-2-yl)methyl]-1H-pyrrole-3-carboxamide] | 1000 nM | 28 mV
CNc1cnc(CNC(=O)c2ccn(S(=O)(=O)c3ccc(C)cc3F)c2)cn1 [Compound 106, 1-(2-fluoro-4-methylbenzene-1-sulfonyl)-N-{[5-(methylamino)pyrazin-2-yl]methyl}-1H-pyrrole-3-carboxamide] | 550 nM | 42 mV
COc1ccc(S(=O)(=O)n2ccc(C(=O)NCc3cnc(C)cn3)c2)c(Br)c1 [Compound 105, 1-(2-bromo-4-methoxy-phenyl)sulfonyl-N-[(5-methylpyrazin-2-yl)methyl]pyrrole-3-carboxamide] | 1200 nM | 24 mV
Cc1ccc(S(=O)(=O)n2ccc(C(=O)NCc3ccon3)c2)cc1 [Compound 52, 1-(4-methylbenzene-1-sulfonyl)-N-[(1,2-oxazol-3-yl)methyl]-1H-pyrrole-3-carboxamide] | 2500 nM | 13 mV
Cc1ccc(S(=O)(=O)n2ccc(C(=O)NCc3cnsc3)c2)cc1 [Compound 55, 1-(4-methylbenzene-1-sulfonyl)-N-[(1,2-thiazol-4-yl)methyl]-1H-pyrrole-3-carboxamide] | 1500 nM | 15 mV
Cc1ccc(S(=O)(=O)n2ccc(C(=O)NCc3nncs3)c2)cc1 [Compound 56, 1-(4-methylbenzene-1-sulfonyl)-N-[(1,3,4-thiadiazol-2-yl)methyl]-1H-pyrrole-3-carboxamide] | 6800 nM | 14 mV
Cc1ccc(S(=O)(=O)n2ccc(C(=O)NCc3cc(C)ccn3)c2)cc1 [Compound 16, N-[(4-methyl-2-pyridyl)methyl]-1-(p-tolylsulfonyl)pyrrole-3-carboxamide] | 3000 nM | 16 mV
Cc1ccc(S(=O)(=O)n2ccc(C(=S)NCc3cnc(C)cn3)c2)cc1 [Compound 94, 1-(4-methylbenzene-1-sulfonyl)-N-[(5-methylpyrazin-2-yl)methyl]-1H-pyrrole-3-carbothioamide] | 1100 nM | 19 mV
